Like-named read-outs stand apart in the source and are kept apart here.
What was measured:
Ienssen's sarcoma = test: Growth of graft Ienssen sarcoma in rats; format: in vivo; details: for Ch/T chemotherapeutical index (ratio of MTD to minimum effective dose): Ienssen sarcoma
Procedure, shortened: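 Solid sarcomas were transplanted into white rats of 110-130 g, and treatment began 5-7 days after transplant. Compounds were dissolved in isotonic NaCl and given intraperitoneally, with doses in mg/kg body weight.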

[1] = Growth of graft sarcoma 536 in rats; format: in vivo; details: rat, in vivo, ip, rats with sarcoma 536, repeated intraperitoneal administration; read-out: Maximum tolerable dose (MTD)
From the text: (§1) The antitumor activity has been studied on white rats weighing 110-130 g, as well as on white noninbred and inbred mice weighing 17-21 g with ligated tumors. The treatment is started 5-7 days transplanting of solid tumors and the following day after the transplanting of leukotic strains. Use has been made of the following transplantable strains of the tumors:
(§2) (1) rats: Ienssen's sarcoma, sarcoma 45, sarcoma M-1, sarcoma 536;
(§3) The compounds of the general formula (I), wherein X represents Cl^- (compound 1), Br^- (compound 2) are well-soluble in an isotonic solution of sodium chloride and they are administered intraperitoneally. The doses of the compounds have been calculated in mg per kg of the animal bodyweight.

sarcoma 536 = test: Growth of graft sarcoma 536 in rats; format: in vivo; details: rats
From the text: as §1, §2, §3

[2] = Growth of graft sarcoma M-1 in rats; format: in vivo; details: rat, in vivo, ip, rats with sarcoma M-1, repeated intraperitoneal administration; read-out: Maximum tolerable dose (MTD)
From the text: as §1, §2, §3

sarcoma M-1 = test: Growth of graft sarcoma M-1 in rats; format: in vivo; details: rats, 5 injections
From the text: as §1, §2, §3

[3] = Growth of graft sarcoma 37 in mice; format: in vivo, noninbred white mice; details: mouse, in vivo, ip; mice with sarcoma 37, repeated intraperitoneal administration; read-out: Maximum tolerable dose (MTD)
From the text: as §1
(§4) (2) noninbred white mice: sarcoma 180, sarcoma AK, sarcoma 37, carcinoma HK;
as §3

sarcoma 37 = test: Growth of graft sarcoma 37 in mice; format: in vivo, noninbred white mice; details: mice
From the text: as §1, §4, §3

[4] = Growth of graft carcinoma HK in mice; format: in vivo, noninbred white mice; details: mouse, in vivo, ip; mice with carcinoma HK, repeated intraperitoneal administration; read-out: Maximum tolerable dose (MTD)
From the text: as §1, §4, §3

carcinoma HK = test: Growth of graft carcinoma HK in mice; format: in vivo, noninbred white mice; details: mice, 6 injections
From the text: as §1, §4, §3

leukemia L1210 = test: Life span of mice with transplantable leukemia L1210; format: in vivo, inbred mice
From the text: as §1
(§5) (3) inbred mice: leukemia La, leukemia L1210 and P-388.
(§6) The activity of compounds relative to leukosis has been assessed by the life span (It) of treated animals as compared to the control ones. It --index of suppression of leukosis development is calculated by the formula: [formula]

leukemia P-388 = test: Life span of mice with transplantable leukemia P-388; format: in vivo, inbred mice
From the text: as §1, §5, §6

[5] = Withdrawal of radioactivity from the rats' organism; format: in vivo; parameters: concentration or dose not given beside the values; details: C^14-labeled
From the text: In the case of administration of the preparation according to the present invention labeled with C^14, a higher level of radioactivity in blood is observed than in the case of prospidin labeled with C^14. A higher rate of accumulation of the preparation according to the present invention as compared to prospidin is observed in larynx, windpipe, bronchi, bone marrow, tumor and thyroid gland. The preparation according to the present invention labeled with C^14 is withdrawn from the organism within 24 hours after the intravenous administration mainly with urine, while C^14 --labeled prospidin is retained in the organism for a longer period.

acute leucosis = test: Clinical study on patients; format: in vivo
From the text: The preparation according to the present invention has been studied in two clinics on patients with different localization of the tumoral process; the tests have justified its low toxicity.
54 patients were under observation including 20 patients with malignant blood diseases. In all the patients both before and after the course of treatment with the medicated compound according to the present invention the clinical state has been assessed (general state, presence of increased lymphatic nodes, liver and spleen). There were also carried out the analyses of peripheral blood, bone marrow, urine, as well as biochemical blood characteristics and electrocardiographic data (ECG).

transplantable leukemia = test: Activity relative to leukoses of inbred mice (overall); format: in vivo
From the text: (2) activity of the compounds relative to leukoses of inbred mice;
as §1, §5, §6

[6] = hypodermally, 68.6 mg/kg, 5 injections
[7] = intramuscularly, 55.5 mg/kg, 6 injections
[8] = rats, 1 mg/kg intraperitoneally, 7 injections
[9] = rats, 4 mg/kg intraperitoneally, 6 injections
[10] = rats, 6 mg/kg intraperitoneally, 6 injections
[11] = rats, 10 mg/kg intraperitoneally, 7 injections
[12] = rats, 20 mg/kg intraperitoneally, 7 injections
[13] = rats, 40 mg/kg intraperitoneally, 5 injections
[14] = rats, 90 mg/kg intraperitoneally, 7 injections
[15] = rats, 125 mg/kg intraperitoneally, 7 injections
[16] = rats, per os, 142 mg/kg, 7 injections
[17] = 50 mg/kg intraperitoneally, 7 injections
[18] = 70 mg/kg intraperitoneally, 6 injections
[19] = 75 mg/kg intraperitoneally, 7 injections
[20] = 250 mg/kg intraperitoneally (MTD)
[21] = mice with transplantable leukemia L1210
[22] = mice with transplantable leukemia P-388
[23] = 24 hours after intravenous administration

## O=C(CCBr)N1CC[N+]2(CC1)CC[N+]1(CCN(C(=O)CCBr)CC1)CC2 [Compound 1, N,N^3 -di-(β-bromopropionyl)-N^1,N^2 -dispirotripiperazinium dichloride]
Ienssen's sarcoma
  Ch/T chemotherapeutical index (ratio of MTD to minimum effective dose): 60
Ienssen's sarcoma; listed as Preparation of the invention
  Ch/T chemotherapeutical index (ratio of MTD to minimum effective dose): 60
Ienssen's sarcoma; [6]
  Change in the bodyweight of animals, test: -6 g
  It, %: +86%
Ienssen's sarcoma; [7]
  Change in the bodyweight of animals, test: -11 g
  It, %: +78%
Ienssen's sarcoma; [8]
  Change in the animal body weight, test: -2 g
  It, % tumor growth suppression index: 0%
Ienssen's sarcoma; rats, 2 mg/kg intraperitoneally, 6 injections
  Change in the animal body weight, test: -1 g
Ienssen's sarcoma; [9]
  Change in the animal body weight, test: 0 g
  It, % tumor growth suppression index: +81%
Ienssen's sarcoma; [10]
  Change in the animal body weight, test: +10 g
  It, % tumor growth suppression index: +80%
Ienssen's sarcoma; [11]
  Change in the animal body weight, test: +4 g
  It, % tumor growth suppression index: +93%
Ienssen's sarcoma; [12]
  Change in the animal body weight, test: +30 g
  It, % tumor growth suppression index: +98%
Ienssen's sarcoma; [13]
  Change in the animal body weight, test: +20 g
  It, % tumor growth suppression index: +85%
Ienssen's sarcoma; [14]
  Change in the animal body weight, test: +6 g
  It, % tumor growth suppression index: +86%
Ienssen's sarcoma; [15]
  Change in the animal body weight, test: +4 g
  It, % tumor growth suppression index: +89%
Ienssen's sarcoma; rats, 160 mg/kg intraperitoneally (MTD), 7 injections
  Change in the animal body weight, test: -12 g
Ienssen's sarcoma; [16]
  Change in the bodyweight of animals, test: -15 g
  It, %: +55%
Ienssen's sarcoma; wider than prospidin
  range of therapeutical action as compared to prospidin: 2.5 fold
[1]
  MTD: 140 mg/kg
Sarcoma 536
  tumor growth suppression class, Sarcoma 536: ++ (tumor growth suppression by 80-95%)
Sarcoma 536; [17]
  Change in the animal body weight, test: -15 g
  It, % tumor growth suppression index: +45%
Sarcoma 536; [18]
  Change in the animal body weight, test: -22 g
  It, % tumor growth suppression index: +55%
Sarcoma 536; 140 mg/kg intraperitoneally (MTD), 6 injections
  Change in the animal body weight, test: -32 g
Sarcoma 536; 140 mg/kg intraperitoneally (MTD), 6 injections, listed as preparation of the invention, 140 mg/kg
  It, % tumor growth suppression index: 78%
[2]
  MTD: 111 mg/kg
Sarcoma M-1; 90 mg/kg intraperitoneally
  Change in the animal body weight, test: +7 g
  It, % tumor growth suppression index: +96%
Sarcoma M-1; 111 mg/kg intraperitoneally (MTD)
  Change in the animal body weight, test: +4 g
[3]
  MTD: 277 mg/kg
Sarcoma 37; [19]
  Change in the animal body weight, test: -2 g
  It, % tumor growth suppression index: +74%
Sarcoma 37; 150 mg/kg intraperitoneally, 5 injections
  It, % tumor growth suppression index: +53%
Sarcoma 37; 277 mg/kg intraperitoneally (MTD), 6 injections
  Change in the animal body weight, test: -4 g
[4]
  MTD: 250 mg/kg
Carcinoma HK; 125 mg/kg intraperitoneally
  Change in the animal body weight, test: -3 g
  It, % tumor growth suppression index: +42%
Carcinoma HK; [20]
  Change in the animal body weight, test: -4 g
  It, % tumor growth suppression index: +86%
Leukemia L1210; leukemia L1210
  extension of life span as compared to the control, factor: 1.03
Leukemia L1210; [21]
  It, % index of suppression of leukosis development: 38%
  Life span: 10.6 ± 2 days
Leukemia P-388; leukemia P-388
  extension of life span as compared to the control, factor: 2
Leukemia P-388; [22]
  It, % index of suppression of leukosis development: 103%
  Life span: 19.7 ± 0.2 days
[5]; [23]
  Withdrawal of radioactivity, Feces: 1.6%
  Withdrawal of radioactivity, Total: 99.9%
  Withdrawal of radioactivity, Urina: 98.3%
[5]; within 3 hours after intravenous administration
  Withdrawal of radioactivity, Urina: 80.7%
Acute leucosis; intravenously, doses of from 100 to 1,000 mg
  patients with positive effect: 45%
Acute leucosis; intravenously, single doses 500 to 600 mg daily (up to 10 g for 20 days)
  tolerability in patients: well tolerated
Acute leucosis; patients with acute lympho- and mielo-regional leukemiae, intravenously 100 to 1,000 mg
  patients with complete clinicohematological remission: 20%
Transplantable leukemia
  effect on transplantable leukemia in mice: clearly pronounced antileukotic effect
Transplantable leukemia; listed as preparation according to the present invention
  effect on transplantable leukemia in mice: pronounced antileucotic effect

— patent publication US4481201A, “Pharmaceutical composition containing N,N^3 -di-(β-bromopropionyl)-N^1,N^2 -dispirotripiperazinium dichloride” (Vsesojuzny Nauchno-Issledovatelsky Khimoko-Farmasevtichesky …, priority 1981, dated 1984)
